The source of these data is US9701625B2, “Nitrone compounds and their use in personal care” (Dow Global Technologies LLC, priority 2014, dated 2017).

This assay is described as follows: Oxygen Radical Absorbance Capacity (ORAC) protocol. To be noted: for TEAC: Trolox equivalent AO capacity calculated from ORAC values; for TEAC values compared to the compounds of the invention: in words. As for the experimental part:
Antioxidant potential is evaluated using the Oxygen Radical Absorbance Capacity (ORAC) protocol. ORAC is a chemical in-vitro method based on the hydrogen atom transfer (HAT) mechanism (see N. Re et al., Free Radical Biology & Medicine, 26 (9/10), 1231 (1997)). ORAC measures antioxidant inhibition of peroxyl radical induced oxidations and thus reflects classical radical chain breaking antioxidant activity by H atom transfer. In this assay, the peroxyl radical reacts with a fluorescent probe to form a non-fluorescent product. This is quantitated using a fluorescence measurement. Antioxidant capacity is determined by decreased rate and amount of product formed over time. This assay depends upon the free radical damage to the fluorescent probe resulting in the change in its fluorescence intensity. The change of fluorescence intensity is an indicator of the degree of free radical damage. In the presence of an antioxidant, the inhibition of free radical damage is reflected in higher fluorescence intensity and can be measured as antioxidant capacity against the free radicals. The uniqueness of ORAC assay is that the reaction is driven to completion. This allows calculation of the area under the curve (AUC) and gives an absolute quantitation of antioxidancy as opposed to relative measurements in many other assays.
As noted, the longer it takes to observe a decrease in fluorescence, the higher the antioxidant (AO) potential. From the AUC for a given antioxidant, the AUC for blank is subtracted to give its ORAC value. The concentration of AO needed to give the same AUC values as Trolox is calculated and used to represent the Trolox equivalent AO Capacity (TEAC). Trolox is ((±)-6-Hydroxy-2,5,7,8-tetramethylchromane-2-carboxylic acid, CAS #53188-07-1), and is used as an internal control.
The ORAC test is conducted in the compounds of Table 1 above (inventive compounds) as well as to Vitamin C, Vitamin E, and the following comparative compounds:
The inventive nitrones in the ORAC test solutions were at a concentration of 30 micromolar, while the concentrations of Trolox, Vitamin C, Vitamin E, BHT, PBN+BHT, and VAL-IPHA were at 100 micromolar. The TEAC values calculated from the ORAC values are listed the Table 2.

Where [1] appears, read: test concentration 100 micromolar.
Where [2] appears, read: inventive nitrones at 30 micromolar.

On to `Cc1cc(C(C)(C)C)c(O)c(C(C)(C)C)c1` [BHT], for which the “TEAC values compared to the compounds of the invention” value (from here on “TEAC values compared to the compounds”) is “not very high”. Further, the TEAC under setting [1] is reported as 0.11-0.21.

For `CCCC/C=[N+](\[O-])C(C)C` [VAL-IPHA], the “TEAC values compared to the compounds” value is recorded as “not very high”. Also, the TEAC under setting [1] was 0.18.

As for `CC(C)(C)/[N+]([O-])=C/c1ccccc1` [PBN], the “TEAC values compared to the compounds” value is listed as “not very high”.

For the molecule `O=C1O[C@H]([C@@H](O)CO)C(O)=C1O` [Vitamin C], the TEAC under setting [1] was 0.76.

Regarding Vitamin E, the TEAC under setting [1] was 0.13.

Turning to `[O-]/[N+](=C\c1ccc(O)cc1)Cc1ccc(O)cc1` [compound 2], the TEAC under setting [2] is 2.94.

On to `COc1cc(/C=[N+](\[O-])Cc2ccc(O)cc2O)ccc1O` [compound 1], for which, under setting [2], the TEAC is 6.45.
